From PubChem BioAssay AID2060337 (Molecular Pharmacology Branch, DTP, NCI, 2025)
pIC50: −log10 of the molar value.

Test system: 832693-133-R-J1-PDC multi-cell spheroids, viability
Experiment: Anticancer human tumor 832693-133-R-J1-PDC patient-derived head and neck squamous carcinoma cell line growth inhibition [IpAb]
Details: for pIC50: curve of first compound; for viability, T/C: stronger effect = lower value; active = viability on the fitted dose curve at most 10% of control; inactive = the rest
How it was run: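 Spheroids of 60% malignant cells, 25% HUVEC and 15% MSC were exposed to targeted agents combined with ipatasertib or abemaciclib. Doses started at or near clinical Cmax (10 microM when unknown) and fell in half-log steps.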

[1] = second compound 0.01 µM, first compound 0.0316 µM
[2] = second compound 0.01 µM, first compound 0.1 µM
[3] = second compound 0.01 µM, first compound 0.316 µM
[4] = second compound 0.01 µM, first compound 1 µM
[5] = second compound 0.01 µM, first compound 3.16 µM
[6] = second compound 0.01 µM, first compound 10 µM
[7] = second compound 0.0316 µM, first compound 0.0316 µM
[8] = second compound 0.0316 µM, first compound 0.1 µM
[9] = second compound 0.0316 µM, first compound 0.316 µM
[10] = second compound 0.0316 µM, first compound 1 µM
[11] = second compound 0.0316 µM, first compound 3.16 µM
[12] = second compound 0.0316 µM, first compound 10 µM
[13] = second compound 0.1 µM, first compound 0.0316 µM
[14] = second compound 0.1 µM, first compound 0.1 µM
[15] = second compound 0.1 µM, first compound 0.316 µM
[16] = second compound 0.1 µM, first compound 1 µM
[17] = second compound 0.1 µM, first compound 3.16 µM
[18] = second compound 0.1 µM, first compound 10 µM
[19] = second compound 0.316 µM, first compound 0.0316 µM
[20] = second compound 0.316 µM, first compound 0.1 µM
[21] = second compound 0.316 µM, first compound 0.316 µM
[22] = second compound 0.316 µM, first compound 1 µM
[23] = second compound 0.316 µM, first compound 3.16 µM
[24] = second compound 0.316 µM, first compound 10 µM
[25] = second compound 1 µM, first compound 0.0316 µM
[26] = second compound 1 µM, first compound 0.1 µM
[27] = second compound 1 µM, first compound 0.316 µM
[28] = second compound 1 µM, first compound 1 µM
[29] = second compound 1 µM, first compound 3.16 µM
[30] = second compound 1 µM, first compound 10 µM
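Also: spheroids exposed to the drugs for one week before the viability readout.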
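For viability, T/C in this document: 100% = DMSO vehicle control wells.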

C=CC(=O)N1CCN(c2nc(=O)n(-c3c(C)ccnc3C(C)C)c3nc(-c4c(O)cccc4F)c(F)cc23)C(C)C1 (stereo not given) + CCN1CCN(Cc2ccc(Nc3ncc(F)c(-c4cc(F)c5nc(C)n(C(C)C)c5c4)n3)nc2)CC1
< 5.00: pIC50 (second compound 0.01 µM) | pIC50 (second compound 0.0316 µM) | pIC50 (second compound 0.1 µM) | pIC50 (second compound 0.316 µM) | pIC50 (second compound 1 µM)
inactive: viability, T/C [1] 96.7% | viability, T/C [2] 104% | viability, T/C [3] 105% | viability, T/C [4] 109% | viability, T/C [5] 117% | viability, T/C [6] 104% | viability, T/C [7] 89.5% | viability, T/C [8] 89.6% | viability, T/C [9] 90.5% | viability, T/C [10] 92.2% | viability, T/C [11] 115% | viability, T/C [12] 95% | viability, T/C [13] 68.8% | viability, T/C [14] 78.8% | viability, T/C [15] 73.3% | viability, T/C [16] 82.9% | viability, T/C [17] 101% | viability, T/C [18] 86.3% | viability, T/C [19] 58.3% | viability, T/C [20] 59.3% | viability, T/C [21] 64% | viability, T/C [22] 64.9% | viability, T/C [23] 77.5% | viability, T/C [24] 84.2% | viability, T/C [25] 53.8% | viability, T/C [26] 58.9% | viability, T/C [27] 65.5% | viability, T/C [28] 73.7% | viability, T/C [29] 82.4% | viability, T/C [30] 98.4%

Cn1ncc(Cl)c1-c1cc(C(=O)NC(CN)Cc2cccc(F)c2)sc1Cl (stereo not given) + CCN1CCN(Cc2ccc(Nc3ncc(F)c(-c4cc(F)c5nc(C)n(C(C)C)c5c4)n3)nc2)CC1
5.35: pIC50 (second compound 0.01 µM)
inactive: viability, T/C [1] 94.4% | viability, T/C [2] 91.1% | viability, T/C [3] 67.5% | viability, T/C [4] 50.2% | viability, T/C [5] 73.7% | viability, T/C [7] 79.4% | viability, T/C [8] 70.2% | viability, T/C [9] 61.3% | viability, T/C [10] 46.6% | viability, T/C [11] 59.9% | viability, T/C [13] 64.4% | viability, T/C [14] 50% | viability, T/C [15] 43.4% | viability, T/C [16] 37.8% | viability, T/C [17] 49.9% | viability, T/C [19] 53.2% | viability, T/C [20] 38.4% | viability, T/C [21] 31.6% | viability, T/C [22] 33.3% | viability, T/C [23] 32.1% | viability, T/C [25] 47.6% | viability, T/C [26] 37.1% | viability, T/C [27] 33.2% | viability, T/C [28] 32.8% | viability, T/C [29] 36%
> 7.50: pIC50 (second compound 0.1 µM) | pIC50 (second compound 0.316 µM) | pIC50 (second compound 1 µM)
5.49: pIC50 (second compound 0.0316 µM)
active: viability, T/C [6] 0.29% | viability, T/C [12] 0.25% | viability, T/C [18] 0.21% | viability, T/C [24] 0.19% | viability, T/C [30] 0.28%

Cn1ncnc1[C@H]1c2n[nH]c(=O)c3cc(F)cc(c23)N[C@@H]1c1ccc(F)cc1 + CCN1CCN(Cc2ccc(Nc3ncc(F)c(-c4cc(F)c5nc(C)n(C(C)C)c5c4)n3)nc2)CC1
inactive: viability, T/C (second compound 0.01 µM, first compound 0.000316 µM) 101% | viability, T/C (second compound 0.01 µM, first compound 0.001 µM) 109% | viability, T/C (second compound 0.01 µM, first compound 0.00316 µM) 93.2% | viability, T/C (second compound 0.01 µM, first compound 0.01 µM) 91.9% | viability, T/C [1] 94.7% | viability, T/C [2] 77.3% | viability, T/C (second compound 0.0316 µM, first compound 0.000316 µM) 90.5% | viability, T/C (second compound 0.0316 µM, first compound 0.001 µM) 86.1% | viability, T/C (second compound 0.0316 µM, first compound 0.00316 µM) 73.8% | viability, T/C (second compound 0.0316 µM, first compound 0.01 µM) 74.6% | viability, T/C [7] 76% | viability, T/C [8] 69.5% | viability, T/C (second compound 0.1 µM, first compound 0.000316 µM) 60.1% | viability, T/C (second compound 0.1 µM, first compound 0.001 µM) 58% | viability, T/C (second compound 0.1 µM, first compound 0.00316 µM) 61% | viability, T/C (second compound 0.1 µM, first compound 0.01 µM) 70.5% | viability, T/C [13] 63% | viability, T/C [14] 63.2% | viability, T/C (second compound 0.316 µM, first compound 0.000316 µM) 59.1% | viability, T/C (second compound 0.316 µM, first compound 0.001 µM) 53.6% | viability, T/C (second compound 0.316 µM, first compound 0.00316 µM) 60.5% | viability, T/C (second compound 0.316 µM, first compound 0.01 µM) 56.5% | viability, T/C [19] 60.8% | viability, T/C [20] 56.3% | viability, T/C (second compound 1 µM, first compound 0.000316 µM) 63.6% | viability, T/C (second compound 1 µM, first compound 0.001 µM) 56.2% | viability, T/C (second compound 1 µM, first compound 0.00316 µM) 60.6% | viability, T/C (second compound 1 µM, first compound 0.01 µM) 63.5% | viability, T/C [25] 65.2% | viability, T/C [26] 48.2%
< 7.00: pIC50 (second compound 0.01 µM) | pIC50 (second compound 0.0316 µM) | pIC50 (second compound 0.1 µM) | pIC50 (second compound 0.316 µM) | pIC50 (second compound 1 µM)
